Source: the supplement of paper PMC10307832

How the values were obtained:
Assay in all cases: relative viability (nuclei count vs DMSO), 5 days (fraction); higher = more cells survive
A-427 = system: A-427
Summary of the method: (§1)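 Nuclei were stained with Hoechst during a one-step fixation (final 0.05% Triton X-100, 1% formaldehyde, 1 ug/ml Hoechst) carried out 5 days after dosing, then counted on 4× images. The cells, lung cancer lines in 1536-well plates, had been dosed by pin tool the day after seeding with one drug alone or a fixed anchor-drug dose plus five library-drug doses (not always all listed) in √10 steps. Relative viability is the nuclei count in treated wells divided by that in vehicle wells, and each value is the median of duplicate plates.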

HCC-366 = system: HCC-366
Summary of the method: as §1

HCC-827 = system: HCC-827
Summary of the method: as §1

LC-2-ad = system: LC-2-ad
Summary of the method: as §1

LCLC-103H = system: LCLC-103H
Summary of the method: as §1

NCI-H1355 = system: NCI-H1355
Summary of the method: as §1

NCI-H1734 = system: NCI-H1734
Summary of the method: as §1

NCI-H1755 = system: NCI-H1755
Summary of the method: as §1

NCI-H1792 = system: NCI-H1792
Summary of the method: as §1

NCI-H1915 = system: NCI-H1915
Summary of the method: as §1

NCI-H1975 = system: NCI-H1975
Summary of the method: as §1

NCI-H1993 = system: NCI-H1993
Summary of the method: as §1

NCI-H2170 = system: NCI-H2170
Summary of the method: as §1

NCI-H2228 = system: NCI-H2228
Summary of the method: as §1

NCI-H2342 = system: NCI-H2342
Summary of the method: as §1

NCI-H2347 = system: NCI-H2347
Summary of the method: as §1

NCI-H23 = system: NCI-H23
Summary of the method: as §1

NCI-H650 = system: NCI-H650
Summary of the method: as §1

RERF-LC-KJ = system: RERF-LC-KJ
Summary of the method: as §1

SK-LU-1 = system: SK-LU-1
Summary of the method: as §1

SK-MES-1 = system: SK-MES-1
Summary of the method: as §1

SW 1573 = system: SW 1573
Summary of the method: as §1

UMC-11 = system: UMC-11
Summary of the method: as §1

Compound: Cc1csc(=NC2CCCCC2)n1/N=C/c1ccc(O)c(O)c1O [MIM1] + Cc1nc(Nc2ncc(C(=O)Nc3c(C)cccc3Cl)s2)cc(N2CCN(CCO)CC2)n1 [Dasatinib] (partner 0.075 µM)
- relative viability (A-427; first compound 0.2 µM): 0.664
- relative viability (A-427; first compound 2 µM): 0.716
- relative viability (A-427; first compound 6.325 µM): 0.573
- relative viability (A-427; first compound 20 µM): 0.178
- relative viability (HCC-366; first compound 0.2 µM): 0.622
- relative viability (HCC-366; first compound 2 µM): 0.65
- relative viability (HCC-366; first compound 6.325 µM): 0.388
- relative viability (HCC-366; first compound 20 µM): 0.0615
- relative viability (HCC-827; first compound 0.2 µM): 0.376
- relative viability (HCC-827; first compound 0.6325 µM): 0.308
- relative viability (HCC-827; first compound 2 µM): 0.259
- relative viability (HCC-827; first compound 6.325 µM): 0.348
- relative viability (HCC-827; first compound 20 µM): 0.488
- relative viability (LC-2-ad; first compound 0.2 µM): 0.834
- relative viability (LC-2-ad; first compound 0.6325 µM): 0.413
- relative viability (LC-2-ad; first compound 2 µM): 0.527
- relative viability (LC-2-ad; first compound 6.325 µM): 0.411
- relative viability (LC-2-ad; first compound 20 µM): 0.142
- relative viability (LCLC-103H; first compound 0.2 µM): 0.422
- relative viability (LCLC-103H; first compound 0.6325 µM): 0.519
- relative viability (LCLC-103H; first compound 2 µM): 0.512
- relative viability (LCLC-103H; first compound 6.325 µM): 0.401
- relative viability (LCLC-103H; first compound 20 µM): 0.364
- relative viability (NCI-H1355; first compound 0.2 µM): 0.746
- relative viability (NCI-H1355; first compound 0.6325 µM): 0.682
- relative viability (NCI-H1355; first compound 2 µM): 0.698
- relative viability (NCI-H1355; first compound 6.325 µM): 0.655
- relative viability (NCI-H1355; first compound 20 µM): 0.391
- relative viability (NCI-H1734; first compound 0.2 µM): 0.453
- relative viability (NCI-H1734; first compound 0.6325 µM): 0.446
- relative viability (NCI-H1734; first compound 2 µM): 0.487
- relative viability (NCI-H1734; first compound 6.325 µM): 0.386
- relative viability (NCI-H1734; first compound 20 µM): 0.161
- relative viability (NCI-H1755; first compound 0.2 µM): 0.467
- relative viability (NCI-H1755; first compound 0.6325 µM): 0.442
- relative viability (NCI-H1755; first compound 2 µM): 0.424
- relative viability (NCI-H1755; first compound 6.325 µM): 0.391
- relative viability (NCI-H1755; first compound 20 µM): 0.23
- relative viability (NCI-H1792; first compound 0.2 µM): 0.786
- relative viability (NCI-H1792; first compound 0.6325 µM): 0.661
- relative viability (NCI-H1792; first compound 2 µM): 0.716
- relative viability (NCI-H1792; first compound 6.325 µM): 0.757
- relative viability (NCI-H1792; first compound 20 µM): 0.808
- relative viability (NCI-H1915; first compound 0.2 µM): 0.354
- relative viability (NCI-H1915; first compound 0.6325 µM): 0.293
- relative viability (NCI-H1915; first compound 2 µM): 0.325
- relative viability (NCI-H1915; first compound 6.325 µM): 0.269
- relative viability (NCI-H1915; first compound 20 µM): 0.187
- relative viability (NCI-H1975; first compound 0.2 µM): 0.355
- relative viability (NCI-H1975; first compound 0.6325 µM): 0.377
- relative viability (NCI-H1975; first compound 2 µM): 0.346
- relative viability (NCI-H1975; first compound 6.325 µM): 0.185
- relative viability (NCI-H1975; first compound 20 µM): 0.17
- relative viability (NCI-H1993; first compound 0.2 µM): 0.349
- relative viability (NCI-H1993; first compound 0.6325 µM): 0.57
- relative viability (NCI-H1993; first compound 2 µM): 0.545
- relative viability (NCI-H1993; first compound 6.325 µM): 0.484
- relative viability (NCI-H1993; first compound 20 µM): 0.411
- relative viability (NCI-H2170; first compound 0.2 µM): 0.569
- relative viability (NCI-H2170; first compound 0.6325 µM): 0.498
- relative viability (NCI-H2170; first compound 2 µM): 0.73
- relative viability (NCI-H2170; first compound 6.325 µM): 0.382
- relative viability (NCI-H2170; first compound 20 µM): 0.172
- relative viability (NCI-H2228; first compound 0.2 µM): 0.505
- relative viability (NCI-H2228; first compound 0.6325 µM): 0.524
- relative viability (NCI-H2228; first compound 2 µM): 0.66
- relative viability (NCI-H2228; first compound 6.325 µM): 0.205
- relative viability (NCI-H2228; first compound 20 µM): 0.0988
- relative viability (NCI-H2342; first compound 0.2 µM): 0.319
- relative viability (NCI-H2342; first compound 0.6325 µM): 0.316
- relative viability (NCI-H2342; first compound 2 µM): 0.331
- relative viability (NCI-H2342; first compound 6.325 µM): 0.299
- relative viability (NCI-H2342; first compound 20 µM): 0.418
- relative viability (NCI-H2347; first compound 0.2 µM): 0.298
- relative viability (NCI-H2347; first compound 0.6325 µM): 0.284
- relative viability (NCI-H2347; first compound 2 µM): 0.291
- relative viability (NCI-H2347; first compound 6.325 µM): 0.339
- relative viability (NCI-H2347; first compound 20 µM): 0.26
- relative viability (NCI-H23; first compound 0.2 µM): 0.826
- relative viability (NCI-H23; first compound 2 µM): 0.684
- relative viability (NCI-H23; first compound 6.325 µM): 0.471
- relative viability (NCI-H23; first compound 20 µM): 0.246
- relative viability (NCI-H650; first compound 0.2 µM): 0.496
- relative viability (NCI-H650; first compound 0.6325 µM): 0.435
- relative viability (NCI-H650; first compound 2 µM): 0.459
- relative viability (NCI-H650; first compound 6.325 µM): 0.416
- relative viability (NCI-H650; first compound 20 µM): 0.301
- relative viability (RERF-LC-KJ; first compound 0.2 µM): 0.632
- relative viability (RERF-LC-KJ; first compound 0.6325 µM): 0.748
- relative viability (RERF-LC-KJ; first compound 2 µM): 0.551
- relative viability (RERF-LC-KJ; first compound 6.325 µM): 0.361
- relative viability (RERF-LC-KJ; first compound 20 µM): 0.228
- relative viability (SK-LU-1; first compound 0.2 µM): 0.155
- relative viability (SK-LU-1; first compound 0.6325 µM): 0.19
- relative viability (SK-LU-1; first compound 2 µM): 0.189
- relative viability (SK-LU-1; first compound 6.325 µM): 0.166
- relative viability (SK-LU-1; first compound 20 µM): 0.235
- relative viability (SK-MES-1; first compound 0.2 µM): 0.369
- relative viability (SK-MES-1; first compound 0.6325 µM): 0.371
- relative viability (SK-MES-1; first compound 2 µM): 0.259
- relative viability (SK-MES-1; first compound 6.325 µM): 0.27
- relative viability (SK-MES-1; first compound 20 µM): 0.367
- relative viability (SW 1573; first compound 0.2 µM): 0.557
- relative viability (SW 1573; first compound 0.6325 µM): 0.558
- relative viability (SW 1573; first compound 2 µM): 0.413
- relative viability (SW 1573; first compound 6.325 µM): 0.244
- relative viability (SW 1573; first compound 20 µM): 0.0901
- relative viability (UMC-11; first compound 0.2 µM): 0.474
- relative viability (UMC-11; first compound 2 µM): 0.532
- relative viability (UMC-11; first compound 6.325 µM): 0.402
- relative viability (UMC-11; first compound 20 µM): 0.235
